Assay results as given in patent publication US10239844B2, “Disubstituted triazole analogs” (BioVentures, LLC, priority 2014, dated 2019).

What was measured:
SK-MEL-28 = assay: NCI 60 panel five-dose growth inhibition, Melanoma; format: cell-based, human; details: SK-MEL-28, Melanoma; for GI50: Homo sapiens
HL-60(T13) = assay: NCI 60 panel five-dose growth inhibition, Leukemia; format: cell-based, human; details: for GI50: Homo sapiens
RPMI-8226 = assay: NCI 60 panel five-dose growth inhibition, Leukemia; format: cell-based, human; details: RPMI-8226, Leukemia; for GI50: Homo sapiens
KM12 = assay: NCI 60 panel five-dose growth inhibition, Colon Cancer; format: cell-based, human; details: for GI50: Homo sapiens
SK-OV-3 = assay: NCI 60 panel five-dose growth inhibition, Ovarian Cancer; format: cell-based, human; details: SK-OV-3, Ovarian Cancer; for GI50: Homo sapiens
A549/ATCC = assay: NCI 60 panel five-dose growth inhibition, Non-Small Cell Lung Cancer; format: cell-based, human; details: for GI50: Homo sapiens
HS 5781 = assay: NCI 60 panel five-dose growth inhibition, Breast Cancer; format: cell-based, human; details: HS 5781, Breast Cancer; for GI50: Homo sapiens
SF-295 = assay: NCI 60 panel five-dose growth inhibition, CNS Cancer; format: cell-based, human; details: SF-295, CNS Cancer; for GI50: Homo sapiens
U0-31 = assay: NCI 60 panel five-dose growth inhibition, Renal Cancer; format: cell-based, human; details: U0-31, Renal Cancer; for GI50: Homo sapiens
COLO 205 = assay: NCI 60 panel five-dose growth inhibition, Colon Cancer; format: cell-based, human; details: COLO 205, Colon Cancer; for GI50: Homo sapiens
[1] = test system: panel of 60 different human cancer cell lines; assay: NCI panel of 60 human cancer cell lines, summary over the panel; format: cell-based; details: against almost all the cell lines except UACC-62, COLO 205 and HCC-2998
Procedure: All synthesized compounds were submitted and evaluated for their anticancer activity at the National Cancer Institute (NCI). The submitted compounds were tested against a panel of 60 different human cancer cell lines, initially at a single concentration of 10 μM. Compounds showing the best growth inhibition activity were then selected for a complete five-dose response study. The anti-tumor effect of each compound was then determined by its GI50 and LC50 values.
The five compounds selected for the full dose response studies have very effective GI50 and TGI (Total Growth Inhibition) values against a variety of human tumor cell lines. All the compounds have LD50 values >100 μM against most of the human cancer cell lines implying the compounds are anti-proliferative. […] Example 4 and Example 6 have <10 nM GI50 values against Leukemia cancer cell lines K-562, SR, non-small lung cancer cell line HOP-92, colon cancer cell lines HCT-116, HCT-15, melanoma cancer lines M14, UACC-62, ovarian cancer cell line NCI/ADR-RES and renal cancer cell line A498.

Structure (SMILES) | GI50 (SK-MEL-28) [nM] | TGI (SK-MEL-28) [nM] | TGI (HL-60(T13)) [nM] | GI50 (HL-60(T13)) [nM] | GI50 (RPMI-8226) [nM] | TGI (RPMI-8226) [nM] | TGI (KM12) [nM] | GI50 (KM12) [nM] | GI50 (SK-OV-3) [nM] | TGI (SK-OV-3) [nM] | TGI (A549/ATCC) [nM] | GI50 (A549/ATCC) [nM] | TGI (HS 5781) [nM] | GI50 (HS 5781) [nM] | GI50 (SF-295) [nM] | TGI (SF-295) [nM] | GI50 (U0-31) [nM] | TGI (U0-31) [nM] | TGI (COLO 205) [nM] | GI50 (COLO 205) [nM] | also measured
COc1ccc(-c2n[nH]nc2-c2cc(OC)c(OC)c(OC)c2)cc1 [Example 6, 4-(4-methoxyphenyl)-5-(3,4,5-trimethoxyphenyl)-2H-1,2,3-triazole] | > 100 | 34800 | 80 | 18.9 | 32.5 | 11000 | 11200 | < 10 | < 10 | 12700 | 22600 | 22.9 | 64200 | 668 | < 10 | 42800 | < 10 | 24600 | 70 | 26.7 | –
COc1cc(-c2n[nH]nc2-c2ccc3c(c2)OCCO3)cc(OC)c1OC [Example 7, 4-(2,3-dihydrobenzo[b][1,4]dioxin-6-yl)-5-(3,4,5-trimethoxyphenyl)-2H-1,2,3-triazole] | 244 | 43500 | – | 201 | 326 | 22100 | 11900 | 70 | 486 | 93200 | 50900 | 289 | >100000 | 442 | 98.9 | 3610 | 661 | 72700 | 1300 | 311 | –
COc1cc(-c2n[nH]nc2-c2cc(OC)c(OC)c(OC)c2)cc(OC)c1OC [Example 3, 4,5-bis(3,4,5-trimethoxyphenyl)-2H-1,2,3-triazole] | > 1000 | 6330 | 5740 | 30 | 36.5 | 87600 | >100000 | 35.3 | 75 | 97700 | >100000 | 54.1 | >100000 | – | 14.4 | >100000 | 92.3 | >100000 | 1160 | 228 | –
COc1cc(-c2n[nH]nc2-c2ccc3ccccc3n2)cc(OC)c1OC [Example 4, 2-(5-(3,4,5-trimethoxyphenyl)-2H-1,2,3-triazol-4-yl)quinoline] | – | – | – | 22.7 | 36.8 | 21100 | 23800 | 29.8 | 45.8 | >100000 | >100000 | 37.4 | >100000 | 40.9 | 10.8 | 150 | 20 | >100000 | 640 | 149 | –
COc1ccc(-c2n[nH]nc2-c2cc(OC)cc(OC)c2)cc1 [Example 5, 4-(3,5-dimethoxyphenyl)-5-(4-methoxyphenyl)-2H-1,2,3-triazole] | – | 60700 | – | < 10 | < 10 | 24600 | 50 | < 10 | < 10 | 40300 | 73400 | < 10 | >100000 | < 10 | < 10 | 27500 | < 10 | 25100 | 120 | 29.2 | GI50 [1]: < 10 nM
